Broadly, the mortality is the percentage killed.

The values that follow come from patent publication EP0972447B1, “Parasitic and saprophagous mite control on beneficial insects” (BASF AKTIENGESELLSCHAFT, priority 1998, dated 2000).

Data set [1] deals with Varroa jacobsoni (Varroa mites). Description: Efficacy against Varroa jacobsoni on topically treated honeybees (Example 1, hives 70% infested): parasite mortality. In kind it is in vivo. The conditions noted are these: 120 h, 5 days at 31°C, read-out: % Mortality Parasites. The protocol:
(§1) In this evaluation, honeybees (Apis mellifera) taken from hives which are 70% infested with Varroa jacobsoni (Varroa mites) are chilled to immobilize the bees. A 1µl droplet of an acetone solution of test compound is applied to the dorsal abdomen of each bee. Control bees receive a 1µl droplet of acetone. A total of 50-52 bees are treated for each dose rate tested. Treatment dose rates are based upon the LD50 (dose rate required to obtain 50% mortality of healthy uninfected bees) of each test compound and are set at 10% of the LD50 and subsequent 10-fold dilutions thereof. The treated bees are placed in an incubator at 31°C in the dark and fed 50% sugar water ad libitum for 5 days. After incubation, the bees are examined for mortality and mite infestation.

For data set [2], the system named is honeybees (Apis mellifera). Description: Mortality of the topically treated host honeybees (Example 1). The class given is in vivo. Particulars: 5 days at 31°C. The protocol: as §1
For another data set, the system named is Varroa jacobsoni. The data set can be described thus: Efficacy against Varroa jacobsoni on topically treated honeybees (Example 2, bees 90% infected): mite mortality. The class given is in vivo. The conditions noted are these: 120 h, read-out: % Mortality Mites. The protocol:
as §1
(§2) Using essentially the same procedure described in Example 1, but employing honeybees which are 90% infected with Varroa jacobsoni, the following results are obtained and shown in Table II below.

In a further data set the test system is honeybees. Description: Mortality of the topically treated host honeybees (Example 2). In kind it is in vivo, Apis mellifera. The conditions noted are these: bees 90% infected. The protocol: as §1, §2
Setting [3] is: 0.002 µg/bee topical in acetone.

As to `Fc1ccc(Oc2cc(Oc3ccc(F)c(C(F)(F)F)c3)ncn2)cc1C(F)(F)F` [B], the mortality at 0.002 µg/bee in data set [1] (setting [3]) is 6%. For the same molecule, the mortality at 0.02 µg/bee in data set [1] (0.02 µg/bee topical in acetone) amounted to 36%. Besides, in data set [1] (0.2 µg/bee topical in acetone), the mortality at 0.2 µg/bee turned out to be 88%. Further, the results for the “% Mortality Bees” value in data set [2] (setting [3]), in data set [2] (0.02 µg/bee topical in acetone) and in data set [2] (0.2 µg/bee topical in acetone) were 16%, 14% and 10%, respectively.

`CN(c1ccc(F)c(C(F)(F)F)c1)c1cc(Oc2ccc(F)c(C(F)(F)F)c2)ncn1` [A]: the mortality at 0.08 µg/bee in data set [1] (0.08 µg/bee topical in acetone) amounted to 75%. Moreover, the mortality at 0.8 µg/bee in data set [1] (0.8 µg/bee topical in acetone) was 100%. Besides, the mortality at 8 µg/bee in data set [1] (8:0 µg/bee topical in acetone) was found to be 92%. Moreover, the “% Mortality Bees” value in data set [2] (0.08 µg/bee topical in acetone) was found to be 21%; in data set [2] (0.8 µg/bee topical in acetone), 13%; in data set [2] (8:0 µg/bee topical in acetone), 21%.

For `CN(c1ccc(F)c(C(F)(F)F)c1)c1cc(Oc2ccc(F)c(C(F)(F)F)c2)ncn1` [C], the mortality at 0.01 µg/bee with Varroa jacobsoni (0.01 µg/bee topical) was 8%. Also, the mortality at 0.1 µg/bee in the data set on Varroa jacobsoni (0.10 µg/bee topical) was found to be 80%. In addition, the mortality at 1 µg/bee in the data set on Varroa jacobsoni (1.00 µg/bee topical) was determined as 91%. The “% Mortality Bees” value in the data set on honeybees (0.01 µg/bee topical) is listed as 13%; in the data set on honeybees (0.10 µg/bee topical) it was 12%; in the data set with honeybees (1.00 µg/bee topical), 16%.
